{"source": "patent US12383624B2", "about": "“Cargo delivery system and composition comprising the same” (SEOUL NATIONAL UNIVERSITY R&DB FOUNDATION, priority 2018, dated 2025)", "key": {"RIPK2": {"target": "T1, RIPK2 (Homo sapiens, UniProt O43353)", "T1 construct": "as cell lines primarily expressing the target protein; endogenous in cells; host or cells: THP-1", "experiment": "target protein degradation by immunoblotting (Experimental Example 6)", "format": "cell-based", "conditions": "THP-1 cell line, 24 hours", "protocol": "(§1) In order to evaluate the target proteion degradation efficacy by Examples 14 to 33 according the disclosure, the following experiment was conducted.\n(§2) First, as cell lines primarily expressing the target protein, Human kidney-derived cancer cells, HEK293T (ATCC, CRL-3216), human prostate-derived cancer cells, LNcap (Korean Cell Line Bank, Korean Cell Line Research Foundation, KCLB No. 80018), mouse embryonic fibroblast, MEF (ATCC, SCRC-1008), human cervical cancer cells, HeLa (Korean Cell Line Bank, Korean Cell Line Research Foundation, KCLB No. 10002), human blood-derived cells, K562 (Korean Cell Line Bank, Korean Cell Line Research Foundation, KCLB No. 10243), human blood-derived cells, THP-1 (Korean Cell Line Bank, Korean Cell Line Research Foundation, KCLB No. 40202), human lung-derived cancer cells, A549 (Korean Cell Line Bank, Korean Cell Line Research Foundation, KCLB No. 10185), human breast-derived cancer cells, MCF7 (Korean Cell Line Bank, Korean Cell Line Research Foundation, KCLB No. 30022), human neuroblastoma, SH-SY5Y cell lines (Korean Cell Line Bank, Korean Cell Line Research Foundation, KCLB No. 22266), human pancreatic cancer cells, PANC-1 (Korean Cell Line Bank, Korean Cell Line Research Foundation, KCLB No. 21469) were cultured, respectively, in an incubator maintained at 5% carbon dioxide, using DMEM containing 10% FBS and 1% streptomycin/penicillin, RPMI1640, or MEM medium, and then the respective cells were dispensed in 12-well plate. Additional incubation was performed for 24 hours to ensure that each cell completely fixed to the surface of the plate.\n(§3) In order to confirm whether Compounds A to W of Examples 14 to 33 degrade the target protein respectively, the cultured cells were treated with the compound of each example for 24 hours and then collected.\n(§4) In this case, HEK293T, which is human kidney-derived cancer cells, LNcap, which is human prostate-derived cancer cells, and MEF cell line, which is mouse embryonic fibroblasts, were treated with Example 14 (Compound A). HEK293T, which is human kidney-derived cancer cells, was treated with Example 15 (Compound B). HEK293T cell line, which is human kidney-derived cancer cells, and HeLa cell line, which is cervical-derived cancer cells, were treated with Example 16 (Compound C). HEK293T cell line, which is human kidney-derived cancer cells, was treated with Example 17 (Compound D). K562 cell line, which is human blood-derived cells, was treated with Example 18 (Compound E). HEK293T cell line, which is human kidney-derived cancer cells, was treated with Example 19 (Compound F). THP-1 cell line, which is human blood-derived cells, was treated with Example 20 (Compound G). A549 cell line, which is human lung-derived cancer cells, was treated with Example 21 (Compound H). A549 cell line, which is human lung-derived cancer cells, was treated with Example 22 (Compound I). MCF7 cell line, which is human breast-derived cancer cells, was treated with Example 23 (Compound J). HEK293T cell line, which is […], was treated with Example 24 (Compound L). SH-SY5Y, which is human neuroblastoma, and HeLa cell line, which is cervical-derived cancer cells, were treated with Example 25 (Compound M). THP-1 cell line, which is human blood-derived cells, was treated with Example 26 (Compound P). SH-SY5Y, which is human neuroblastoma, and HeLa cell line, which is cervical-derived cancer cells, were treated with Example 27 (Compound Q). SH-SY5Y, which is human neuroblastoma, and HeLa cell line, which is cervical-derived cancer cells, were treated with Example 28 (Compound R). HeLa cell line, a human cervical-derived cancer cell, was treated with Example 29 (Compound S). SH-SY5Y cell line, which is human neuroblastoma, was treated with Example 30 (Compound T). SH-SY5Y cell line, which is human neuroblastoma, was treated with Example 31 (Compound U). PANC-1 cell line, which is human pancreatic-derived cancer cells, was treated with Example 32 (Compound V). […]"}, "p-STAT3": {"target": "T2, p-STAT3 (Homo sapiens, UniProt P40763)", "T2 construct": "endogenous in cells; host or cells: A549", "experiment": "target protein degradation by immunoblotting (Experimental Example 6)", "format": "cell-based", "conditions": "A549 cell line, 24 hours", "protocol": "as §1, §2, §3, §4"}, "STAT3": {"target": "T3, STAT3 (Homo sapiens, UniProt P40763)", "T3 construct": "as cell lines primarily expressing the target protein; endogenous in cells; host or cells: A549", "experiment": "target protein degradation by immunoblotting (Experimental Example 6)", "format": "cell-based", "conditions": "A549 cell line, 24 hours", "protocol": "as §1, §2, §3, §4"}, "Cyclin D1": {"test_system": "Cyclin D1", "experiment": "target protein degradation by immunoblotting (Experimental Example 6)", "format": "cell-based, human", "conditions": "A549 cell line, 24 hours", "protocol": "as §1, §2, §3, §4"}, "Desmin Mut(L385P)": {"target": "T4, Desmin Mut(L385P) (Homo sapiens, UniProt P17661, L385P)", "T4 construct": "expressed in transfected cells; host or cells: HeLa (Compound S); SH-SY5Y or HeLa (Compounds M, Q, R)", "T4 sequence (P17661 whole entry L385P)": "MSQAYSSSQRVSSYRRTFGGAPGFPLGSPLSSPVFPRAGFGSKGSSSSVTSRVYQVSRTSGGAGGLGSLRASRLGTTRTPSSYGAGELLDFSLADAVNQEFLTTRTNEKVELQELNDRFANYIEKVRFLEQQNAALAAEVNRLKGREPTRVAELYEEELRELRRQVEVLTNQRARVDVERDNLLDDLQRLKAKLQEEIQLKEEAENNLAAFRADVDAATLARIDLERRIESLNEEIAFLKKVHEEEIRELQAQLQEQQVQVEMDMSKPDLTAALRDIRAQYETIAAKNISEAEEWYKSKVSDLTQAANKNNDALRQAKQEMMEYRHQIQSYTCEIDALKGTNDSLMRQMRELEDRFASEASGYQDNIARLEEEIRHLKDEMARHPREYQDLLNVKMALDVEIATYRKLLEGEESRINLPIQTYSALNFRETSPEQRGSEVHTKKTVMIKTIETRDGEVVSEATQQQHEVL", "experiment": "target protein degradation by immunoblotting (Experimental Example 6)", "format": "cell-based", "conditions": "24 hours", "protocol": "as §1, §2, §3, §4"}, "Tau": {"test_system": "Tau", "experiment": "target protein degradation by immunoblotting (Experimental Example 6)", "format": "cell-based, human", "conditions": "24 hours", "protocol": "as §1, §2, §3, §4"}, "α-synuclein(A53T)": {"target": "T5, α-synuclein(A53T) (Homo sapiens, UniProt P37840, A53T)", "T5 construct": "expressed in transfected cells; host or cells: SH-SY5Y (Compound U); SH-SY5Y or HeLa (Compound M)", "experiment": "target protein degradation by immunoblotting (Experimental Example 6)", "format": "cell-based", "conditions": "SH-SY5Y cell line, 24 hours", "protocol": "as §1, §2, §3, §4"}, "p62 protein": {"target": "T6, p62 protein (Homo sapiens, UniProt Q13501)", "T6 construct": "endogenous in cells; host or cells: HEK293", "T6 sequence (Q13501 whole entry)": "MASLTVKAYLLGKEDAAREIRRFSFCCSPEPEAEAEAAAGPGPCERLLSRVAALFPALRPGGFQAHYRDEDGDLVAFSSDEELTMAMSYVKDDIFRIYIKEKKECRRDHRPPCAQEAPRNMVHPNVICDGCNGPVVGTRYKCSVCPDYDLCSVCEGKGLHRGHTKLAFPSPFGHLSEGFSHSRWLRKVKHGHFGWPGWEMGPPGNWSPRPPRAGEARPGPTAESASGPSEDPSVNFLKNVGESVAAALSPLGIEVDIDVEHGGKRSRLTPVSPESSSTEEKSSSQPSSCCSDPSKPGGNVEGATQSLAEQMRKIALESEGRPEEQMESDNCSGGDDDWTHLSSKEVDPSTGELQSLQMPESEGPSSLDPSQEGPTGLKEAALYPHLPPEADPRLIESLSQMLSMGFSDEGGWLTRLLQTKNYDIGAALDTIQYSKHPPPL", "experiment": "oligomerization activity of p62 protein in cultured cells by immunoblotting", "format": "cell-based", "set-up": "dose or concentration left out as unconfirmed", "conditions": "HEK293 cell line, 2 hr, unlike DMSO control", "protocol": "In order to evaluate the oligomerization activity efficacy of p62 protein according to examples of the disclosure, HEK293 cell line, which is human embryonic kidney-derived cell, was collected. The cell lines were treated with Example 3 (PBA 1104), Example 4 (PBA 1105), Example 5 (Anle F105), Example 8 (PHTPP 1304), Example 11 (BTA-1 1104), Example 12 (Curcumin 1204), Example 1 (ATC 1105), Example 2 (ATC 1104), Example 10 (Resv 1105), Example 13 (Rilu 204) according to the examples, YTK-1105 compound, which is an autophagy targeting ligand compound as a comparative example, and DMSO as a control […], 2 hr, respectively.\nIn order to measure intracellular p62 protein activation and oligomerization in cells according to the treatment with these compounds, the respective cells were dispensed into a 100 pi dish. The cells were collected after further culturing for 24 hours so that the cells were completely attached to the surface of the plate. 100 μl of lysis buffer (20 mM Tris (pH 7.4), 150 mM NaCl, 1% Triton X-100, 2 mM NaF, 2 mM EDTA, 2 mM beta-glycerophosphate, 5 mM sodium orthovanadate, 1 mM PMSF, leupeptin, aproteinin) were injected into each sample and the cells were lysed. Based on the measured total protein concentration, each sample was treated with test compounds at room temperature for 2 hours, and then a sample buffer was added and allowed to react at 95° C. for 10 minutes. […]"}, "[1]": {"conditions": "SH-SY5Y and HeLa cell lines treated"}}}
{"smiles": "CC(C)(C)S(=O)(=O)c1cc2c(Nc3ccc4scnc4c3)ncnc2cc1OCCNCCOCCOCCNCc1cccc(OCc2ccccc2)c1", "note": "[Example 20, N-(7-((1-(3-(benzyloxy)phenyl)-5,8-dioxa-2,11-diazatridecan-13-yl)oxy)-6-(tert-butylsulfonyl)quinazolin-4-yl)benzo[d]thiazol-5-amine]", "values": [{"measurement": "degradation of target protein RIPK2 (decrease in level vs Control)", "setting": "RIPK2", "result": "can be degraded"}]}
{"smiles": "NC(=O)CC[C@H](NC(=O)[C@@H]1CC[C@@H]2CCN(C(=O)CCCOCCOCCOCCOCCNC[C@@H](O)COc3ccc(OCc4ccc(F)cc4)c(OCc4ccc(F)cc4)c3)C[C@H](NC(=O)c3cc4cc(C(F)(F)P(=O)(O)O)ccc4[nH]3)C(=O)N21)C(=O)NC(c1ccccc1)c1ccccc1", "note": "[Example 21, ((2-(((5S,8S,10aR)-8-(((S)-5-amino-1-(benzhydrylamino)-1,5-dioxopentan-2-yl)carbamoyl)-3-((R)-1-(3,4-bis((4-fluorobenzyl)oxy)phenoxy)-2-hydroxy-7,10,13,16-tetraoxa-4-azaicosan-20-oyl)-6-oxodecahydropyrrolo[1,2-a][1,5]diazocin-5-yl)carbamoyl)-1H-indol-5-yl)difluoromethyl)phosphonic acid]", "values": [{"measurement": "degradation of target protein p-STAT3 (decrease in level vs Control)", "setting": "p-STAT3", "result": "can be degraded"}, {"measurement": "degradation of target protein STAT3 (decrease in level vs Control)", "setting": "STAT3", "result": "can be degraded"}, {"measurement": "degradation of target protein Cyclin D1 (decrease in level vs Control)", "setting": "Cyclin D1", "result": "can be degraded"}]}
{"smiles": "NC(=O)CC[C@H](NC(=O)[C@@H]1CC[C@@H]2CCN(C(=O)CCCOCCOCCOCCOCCNCc3ccc(OCc4ccccc4)c(OCc4ccccc4)c3)C[C@H](NC(=O)c3cc4cc(C(F)(F)P(=O)(O)O)ccc4[nH]3)C(=O)N21)C(=O)NC(c1ccccc1)c1ccccc1", "note": "[Example 22, ((2-(((5S,8S,10aR)-8-(((S)-5-amino-1-(benzhydrylamino)-1,5-dioxopentan-2-yl)carbamoyl)-3-(1-(3,4-bis(benzyloxy)phenyl)-5,8,11,14-tetraoxa-2-azaoctadecan-18-oyl)-6-oxodecahydropyrrolo[1,2-a][1,5]diazocin-5-yl)carbamoyl)-1H-indol-5-yl)difluoromethyl)phosphonic acid]", "values": [{"measurement": "degradation of target protein p-STAT3 (decrease in level vs Control)", "setting": "p-STAT3", "result": "can be degraded"}, {"measurement": "degradation of target protein STAT3 (decrease in level vs Control)", "setting": "STAT3", "result": "can be degraded"}, {"measurement": "degradation of target protein Cyclin D1 (decrease in level vs Control)", "setting": "Cyclin D1", "result": "can be degraded"}]}
{"smiles": "CC(C)(C)S(=O)(=O)c1cc2c(Nc3ccc4scnc4c3)ncnc2cc1OCCNCCOCCOCCOCCOCCOCCNC[C@@H](O)COc1ccc(OCc2ccc(F)cc2)c(OCc2ccc(F)cc2)c1", "note": "[Example 26, (R)-1-((4-(benzo[d]thiazol-5-ylamino)-6-(tert-butylsulfonyl)quinazolin-7-yl)oxy)-24-(3,4-bis((4-fluorobenzyl)oxy)phenoxy)-6,9,12,15,18-pentaoxa-3,21-diazatetracosan-23-ol]", "values": [{"measurement": "degradation of target protein RIPK2 (decrease in level vs Control)", "setting": "RIPK2", "result": "can be degraded"}]}
{"smiles": "O=C(CCCc1ccccc1)NCCOCCOCCOCCOCCOCCNCc1ccc(OCc2ccccc2)c(OCc2ccccc2)c1", "note": "[Example 27, N-(1-(3,4-bis(benzyloxy)phenyl)-5,8,11,14,17-pentaoxa-2-azanonadecan-19-yl)-4-phenylbutanamide]", "values": [{"measurement": "degradation of target protein Desmin Mut(L385P) (decrease in level vs Control)", "setting": "Desmin Mut(L385P); [1]", "result": "can be degraded"}, {"measurement": "degradation of target protein Tau (decrease in level vs Control)", "setting": "Tau; [1]", "result": "can be degraded"}]}
{"smiles": "O=C(CCCc1ccccc1)NCCOCCOCCOCCOCCOCCOCCOCCNCc1ccc(OCc2ccccc2)c(OCc2ccccc2)c1", "note": "[Example 28, N-(1-(3,4-bis(benzyloxy)phenyl)-5,8,11,14,17,20,23-heptaoxa-2-azapentacosan-25-yl)-4-phenylbutanamide]", "values": [{"measurement": "degradation of target protein Desmin Mut(L385P) (decrease in level vs Control)", "setting": "Desmin Mut(L385P); [1]", "result": "can be degraded"}, {"measurement": "degradation of target protein Tau (decrease in level vs Control)", "setting": "Tau; [1]", "result": "can be degraded"}]}
{"smiles": "O=C(CCCc1ccccc1)NCCOCCOCCOCCNC[C@@H](O)COc1ccc(OCc2ccc(F)cc2)c(OCc2ccc(F)cc2)c1", "note": "[Example 29, (R)—N-(15-(3,4-bis((4-fluorobenzyl)oxy)phenoxy)-14-hydroxy-3,6,9-trioxa-12-azapentadecyl)-4-phenylbutanamide]", "values": [{"measurement": "degradation of target protein Desmin Mut(L385P) (decrease in level vs Control)", "setting": "Desmin Mut(L385P); HeLa cell line", "result": "can be degraded"}]}
{"smiles": "CN(CCOCCOCCOCCNCc1ccc(OCc2ccccc2)c(OCc2ccccc2)c1)c1ccc2nc3ccc(=[N+](C)C)cc-3sc2c1", "note": "[Example 31, N-(7-((1-(3,4-bis(benzyloxy)phenyl)-5,8,11-trioxa-2-azatridecan-13-yl) (methyl)amino)-3H-phenothiazin-3-ylidene)-N-methylmethanaminium 2,2,2-trifluoroacetate]", "values": [{"measurement": "degradation of target protein α-syn. Mut(A53T) (decrease in level vs Control)", "setting": "α-synuclein(A53T)", "result": "can be degraded"}, {"measurement": "degradation of target protein Tau (decrease in level vs Control)", "setting": "Tau; SH-SY5Y cell line", "result": "can be degraded"}]}
{"smiles": "OCCNCc1ccc(OCc2ccccc2)c(OCc2ccccc2)c1", "note": "[YTK-1105]", "values": [{"measurement": "monomer of p62 proteins", "setting": "p62 protein", "result": "decrease"}, {"measurement": "p62 oligomers and high-molecular aggregates", "setting": "p62 protein", "result": "increase"}]}
